How the values were obtained:
IFN = assay: Cytokine Induction in Human Cells: interferon (IFN) secreted by PBMCs, A549/encephalomyocarditis bioassay; assay type: cell-based; settings: 18 to 24 hours; note: call rule not given here
How it was run: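 Human PBMCs from healthy donors at 1.5-2×10^6 cells/mL in RPMI with 10% FBS, exposed to compounds (typically 0.1 to 100 μM, ≤1% DMSO) for 18 to 24 h at 37° C. Secreted IFN measured by A549/encephalomyocarditis virus cytopathic-effect bioassay, in alpha reference units/mL against NIH human leukocyte IFN standard.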

TNF = assay: Cytokine Induction in Human Cells: tumor necrosis factor (TNF) secreted by PBMCs, ELISA; assay type: cell-based; settings: 18 to 24 hours; note: call rule not given here
How it was run: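 Human donor PBMCs at 1.5-2×10^6 cells/mL in RPMI with 10% FBS were exposed to compound, generally at 0.1 to 100 μM (≤1% DMSO final), for 18 to 24 h at 37 °C. Secreted TNF in supernatant was measured by ELISA and reported as pg/mL.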

Row | Compound | melting point | IFN induction (IFN; Dose Concentration 0.1 μM) | IFN induction (IFN; Dose Concentration 1.0 μM) | IFN induction (IFN; Dose Concentration 10.0 μM) | IFN induction (IFN; Dose Concentration 100.0 μM) | TNF induction (TNF; Dose Concentration 0.1 μM) | TNF induction (TNF; Dose Concentration 1.0 μM) | TNF induction (TNF; Dose Concentration 10.0 μM) | TNF induction (TNF; Dose Concentration 100.0 μM)
1 | CCCCc1nc2c(N)nc3cccnc3c2n1CCN [Example 91, 2-(4-Amino-2-butyl-1H-imidazo[4,5-c][1,5]naphthyridin-1-yl)ethaneamine] | 175 to 176 °C | + | + | + | + | + | + | + | +
2 | CCCCc1nc2c(N)nc3cccnc3c2n1CCNC(=O)c1cc(C(C)(C)C)c(O)c(C(C)(C)C)c1 [Example 95, N^1-[2-(4-amino-2-butyl-1H-imidazo[4,5-c][1,5]naphthyridin-1-yl)ethyl]-3,5-di-(1,1-dimethylethyl)-4-hydroxybenzamide] | 248 to 250 °C | ± | + | + | + | − | − | + | +
3 | CCCCc1nc2c(N)nc3cccnc3c2n1CCNC(=O)C1CCC(=O)O1 (centres unmarked) [Example 97, N-[2-(4-Amino-2-butyl-1H-imidazo[4,5-c][1,5]naphthyridin-1-yl)ethyl]-5-oxotetrahydro-2-furancarboxamide] | 153 to 154 °C | − | − | + | + | − | − | + | +
4 | CCCCc1nc2c(N)nc3cccnc3c2n1CCNC(=O)Cc1cccc(O)c1 [Example 98, N^1-[2-(4-Amino-2-butyl-1H-imidazo[4,5-c][1,5]naphthyridin-1-yl)ethyl]-2-(3-hydroxyphenyl)acetamide] | 208 to 210 °C | − | + | + | + | − | + | + | +
5 | CCCCc1nc2c(N)nc3c(c2n1CCNC(=O)c1cc(C(C)(C)C)c(O)c(C(C)(C)C)c1)NCCC3 [Example 104, N^1-[2-(4-Amino-2-butyl-6,7,8,9-tetrahydro-1H-imidazo[4,5-c][1,5]naphthyridin-1-yl)ethyl]-3,5-di-(1,1-dimethylethyl)-4-hydroxybenzamide] | 208 to 210 °C | − | + | + | − | − | − | + | −
6 | CCCCc1nc2c(N)nc3cccnc3c2n1CCCCNC(=O)CSc1ncccn1 [Example 109, N^1-[4-(4-Amino-2-butyl-1H-imidazo[4,5-c][1,5]naphthyridin-1-yl)butyl]-2-(2-pyrimidinylsulfanyl)acetamide] | 156 to 160 °C (dec.) | + | + | + | + | − | ± | + | +
7 | CCCCc1nc2c(N)nc3cccnc3c2n1CCCCNC(=O)CSc1ccncc1 [Example 110, N^1-[4-(4-Amino-2-butyl-1H-imidazo[4,5-c][1,5]naphthyridin-1-yl)butyl]-2-(4-pyridylsulfanyl)acetamide] | 127.5 to 129 °C | + | + | + | + | − | + | + | +
8 | NCCCCn1cnc2c(N)nc3cccnc3c21 [Example 111, 4-(4-amino-1H-imidazo[4,5-c][1,5]naphthyridin-1-yl)butaneamine] | 161 to 163 °C | − | − | + | + | − | − | + | +
9 | CCCCc1nc2c(N)nc3cccnc3c2n1CCCCNC(=O)c1ccc(C(OCCN(C)C)c2ccccc2)cc1 (centres unmarked) [Example 112, N^1-[4-(4-Amino-2-butyl-1H-imidazo[4,5-c][1,5]naphthyridin-1-yl)butyl]-4-{[2-(dimethylamino)ethoxy](phenyl)methyl}benzamide] | 105 to 108 °C | + | + | + | ± | + | + | − | −

Continued, in another order:

Row | melting point | Compound | IFN induction (IFN; Dose Concentration 0.1 μM) | IFN induction (IFN; Dose Concentration 1.0 μM) | IFN induction (IFN; Dose Concentration 10.0 μM) | IFN induction (IFN; Dose Concentration 100.0 μM) | TNF induction (TNF; Dose Concentration 0.1 μM) | TNF induction (TNF; Dose Concentration 1.0 μM) | TNF induction (TNF; Dose Concentration 10.0 μM) | TNF induction (TNF; Dose Concentration 100.0 μM)
10 | 118 to 120 °C | CCCCc1nc2c(N)nc3cccnc3c2n1CCNC(=O)OC(C)(C)C [Example 90, 1,1-Dimethylethyl N-[2-(4-Amino-2-butyl-1H-imidazo[4,5-c][1,5]naphthyridin-1-yl)ethyl]carbamate] | ± | + | + | + | − | − | + | +
11 | 228 to 230 °C | CCCCc1nc2c(N)nc3cccnc3c2n1CCNC(C)=O [Example 92, N^1-[2-(4-Amino-2-butyl-1H-imidazo[4,5-c][1,5]naphthyridin-1-yl)ethyl]acetamide] | ± | + | + | + | − | + | + | +
12 | 198 to 200 °C | C/C=C/C(=O)NCCn1c(CCCC)nc2c(N)nc3cccnc3c21 [Example 93, N^1-[2-(4-Amino-2-butyl-1H-imidazo[4,5-c][1,5]naphthyridin-1-yl)ethyl]-(E)-2-butenamide] | − | + | + | + | − | + | + | +
13 | 188 to 190 °C | CCCCc1nc2c(N)nc3cccnc3c2n1CCNC(=O)C1CCCCC1 [Example 94, N^1-[2-(4-Amino-2-butyl-1H-imidazo[4,5-c][1,5]naphthyridin-1-yl)ethyl]-1-cyclohexanecarboxamide] | − | + | + | + | − | + | + | +
14 | 258 to 260 °C | CCCCc1nc2c(N)nc3cccnc3c2n1CCNC(=O)c1cccc(O)n1 [Example 99, N-[2-(4-Amino-2-butyl-1H-imidazo[4,5-c][1,5]naphthyridin-1-yl)ethyl]-6-hydroxy-2-pyridinecarboxamide] | − | − | + | + | − | − | + | +
15 | 163 to 164 °C | CCCCc1nc2c(N)nc3cccnc3c2n1CCNC(=O)CC(C)CCC=C(C)C (centres unmarked) [Example 100, N^1-[2-(4-Amino-2-butyl-1H-imidazo[4,5-c][1,5]naphthyridin-1-yl)ethyl]-3,7-dimethyl-6-octenamide] | − | − | + | + | − | − | + | +
16 | 184 to 185 °C | CCCCc1nc2c(N)nc3cccnc3c2n1CCNC(=O)C(CC(C)C)NC(=O)OC(C)(C)C (centres unmarked) [Example 101, 1,1-Dimethylethyl N-[1-({[2-(4-Amino-2-butyl-1H-imidazo[4,5-c][1,5]naphthyridin-1-yl)ethyl]amino}carbonyl)-3-methylbutyl]carbamate] | − | − | + | + | − | − |  | +
17 | 188 to 189 °C | CCCCc1nc2c(N)nc3cccnc3c2n1CCNC(=O)c1c(C)noc1C [Example 103, N-[2-(4-Amino-2-butyl-1H-imidazo[4,5-c][1,5]naphthyridin-1-yl)ethyl]-3,5-dimethyl-4-isoxazolecarboxamide] | − | − | + | + | − | − | + | +
18 | 242 to 244 °C | CCCCc1nc2c(N)nc3cccnc3c2n1CCCCNC(=O)Cn1cc(C)c(O)nc1=O [Example 108, N^1-[4-(4-Amino-2-butyl-1H-imidazo[4,5-c][1,5]naphthyridin-1-yl)butyl]-2-(4-hydroxy-5-methyl-2-oxo-1,2-dihydro-1-pyrimidinyl)acetamide] | + | + | + | + | ± | − | + | +

Source: patent US7678918B2, “Intermediates for imidazonaphthyridines” (3M Innovative Properties Company, priority 1997, dated 2010)
